Data published in patent US9861735B2, “Extracorporeal perfusion apparatus” (Fresenius Medical Care Deutschland GmbH, priority 2012, dated 2018).
Where “and” joins values, the source holds several entries; their conditions need not be identical. Equal entries are not always repeated.

What was measured:
[1] = offset at least in part by the necessary higher dosing; cited from earlier work
[2] = system: LPS Pseudomonas aeruginosa; assay: Endotoxin batch (batch test I), LAL test, LPS from Pseudomonas aeruginosa in plasma; assay type: biochemical; conditions: for LAL EU/ml: plasma + 0.5 ng/ml LPS, incubation 60 min, 37° C.
Description: (§1) 9 blood-sampling tubes (each measuring 9 ml) spiked with 5 IU heparin are removed from a donor. The plasma is centrifuged off and the cell pellet incubated on a roll mixer. The plasma is spiked with endotoxin (LPS) and used for batch test I:
LPS: Pseudomonas aeruginosa (L-7018 company Sigma batch: 128K4115, −70° C., at 100 μl 10−3 g/ml (1 mg/ml))
(§2) The LPS is used in the batch with a final concentration 0.5 ng/ml. The tests are carried out in 3 ml pyrogen-free glass vials. In batch test I, different PMB concentrations (company. Sigma, P-1004) are added in the duplicate approach and are incubated for 60 min on an overhead shaker at 37° C. (see Table 3.5).
(§3) In batch test 1, PMB concentrations with 0 (without PMB), 10, 100, 250, 500 and 1000 ng/ml are used. Sterile PMB solutions (autoclaved pyrogen-free at 121° C., 90 min) are produced for this purpose with the following concentrations (Table 3.3):
(§4) The endotoxins are measured in the form of EU/ml with the aid of a Limulus Amebocyte Lysate test (LAL) by Charles River.

LPS E. coli = assay: Endotoxin batch (batch test I), LAL test, LPS from E. coli in plasma; assay type: biochemical; conditions: for LAL EU/ml: plasma + 0.5 ng/ml LPS, incubation 60 min, 37° C.
Description: as §1, §2, §3, §4

blood cells = assay: Cytokine batch (batch test II): cytokine distribution by blood cells; assay type: cell-based; conditions: LPS (E. coli)-spiked plasma, 4 hours incubation
Description: The plasma spiked with LPS and PMB is fed back following batch test 1 to the cell concentrate obtained from the blood donor in the ratio 1:1 (see Table 3.5). For the cytokine batch, the samples from batch test I were used with a PMB concentration of 0 (without PMB), 250, 500 and 1000 ng/ml. As control, a sample without LPS and with 1000 ng/ml PMB was included. Following the incubation times of 4 h and 12 h at 37° C. on a roll mixer (5 revolutions/min), samples were taken, centrifuged off and 50 μl plasma were frozen at −80° C. for the subsequent cytokine quantification.

[3] = system: LPS (L-7018 Pseud. aerug.); assay: PMB desorption over time: LPS inactivation by PMB-coated HPR10 in plasma (LAL test); assay type: biochemical, Pseudomonas aeruginosa; conditions: PMB-coated HPR10 carrier, 1% in LPS-spiked plasma (5 ng/ml), 37° C.
Description: The PMB solution (Sigma, 10 mg/ml in dist. water) is autoclaved at 121° C. for 30 min, and the carrier (HPR10) is then coated in 15 ml Greiner tubes with PMB as follows (see Table 10.2): 3 ml carrier with 7.5 ml PMB solution
The coating is carried out overnight on a roll mixer at room temperature. The coated carrier is then washed twice with 10 ml NaCl solution (sterile), and a 50% suspension is produced. A tube without adsorber was included as control.
The plasma with 5 IU heparin is spiked with 5 ng/ml LPS (L-7018 Pseud. aerug. company Sigma batch: 128K4115). In the triplicate approach, 1% PMB-coated carrier is incubated with the LPS-spiked plasma (30 μl carrier+2970 μl LPS spiked plasma) at 37° C. in an overhead shaker and samples were taken at intervals (5, 15 and 60 min) for LAL analysis.
The analysis was performed using an LAL test.

[4] = PMB clearance (dialyser, depletion agent, patient) for dosing calculation; conditions: specified example
Excerpt: The following calculation example, besides the PMB patient clearance, also takes into consideration the clearance of a dialyser (dialysis filter) arranged in the extracorporeal blood circuit and the clearance of the carrier of the depletion agent. The calculation example presupposes an existing PMB serum concentration. This is provided by administration of a bolus prior to the start of the treatment, wherein the injection solutions described under Example 4 can be used for this purpose.
For the calculation of the dosing of polymyxin B via infusion in the extracorporeal blood circuit at a lipid feed point, the PMB clearance of the patient body, of the dialyser and of the depletion agent are taken into consideration: • The PMB dialysis clearance (CDial) can be determined experimentally and is dependent on the plasma flow and also on the dialysis filter type used. In the specified example, this is 60 ml/min. • The PMB clearance of the depletion agent (Cads) is dependent on the carrier material used and also on the filtrate flow.
The PMB total clearance (Ctotal) is given by addition from the individual PMB clearance rates. The resultant decrease of PMB is illustrated in FIG. 16. […]

[5] = patient, specified example; cited from earlier work
[6] = PMB concentration in the plasma 50 to 300 ng/ml (0.05 to 0.3 μg/ml)

Substance	nephrotoxicity comparison (in words) [1]	LAL EU/ml ([2]; PMB 10 ng/ml)	LAL EU/ml ([2]; PMB 100 ng/ml)	LAL EU/ml ([2]; PMB 250 ng/ml)	LAL EU/ml ([2]; PMB 500 ng/ml)	LAL EU/ml ([2]; PMB 1000 ng/ml)	inhibition of LPS from Pseudomonas aeruginosa [2, 6]	LAL EU/ml (LPS E. coli; PMB 10 ng/ml)	LAL EU/ml (LPS E. coli; PMB 100 ng/ml)	LAL EU/ml (LPS E. coli; PMB 250 ng/ml)	LAL EU/ml (LPS E. coli; PMB 500 ng/ml) [EU/ml]	LAL EU/ml (LPS E. coli; PMB 1000 ng/ml)	inhibition of LPS from E. coli (LPS E. coli; [6])	inhibition of the cytokine distribution (TNF-alpha, IL-1beta, IL-6, IL-8) (blood cells; very low PMB concentrations (250, 500, 1000 ng/ml))	inhibition of the key mediator TNF-alpha (blood cells; very low PMB concentrations)	LPS inactivation after 5 minutes compared with after 60 minutes of incubation [3]	PMB clearance of the depletion agent (Cads) ([4]; dependent on carrier material and filtrate flow) [mL/min]	PMB dialysis clearance (CDial) ([4]; dependent on plasma flow and dialysis filter type) [mL/min]	half-life for PMB [5] [h]
Colistin	less nephrotoxic than polymyxin B																		
polymyxin B [PMB]		0.178 EU/ml and 0.167 EU/ml	0.112 EU/ml and 0.137 EU/ml	0.108 EU/ml and 0.123 EU/ml	0.091 EU/ml and 0.081 EU/ml	0.062 EU/ml and 0.061 EU/ml	strong inhibition	0.77 EU/ml and 0.871 EU/ml	0.379 EU/ml and 0.382 EU/ml	0.281 EU/ml and 0.29 EU/ml	0.209	0.154 EU/ml and 0.16 EU/ml	strong inhibition	strong inhibition	particularly pronounced	almost the same	45	60	13.6
